Values after ≈ are worked out from the molar mass of the structure shown.
Tests used:
Test in all cases: MIC against standard strain, plate method
Format in all cases: cell-based
Escherichia coli NIHJ = details: unit assumed
Protocol: (§1) The minimum inhibitory concentrations (MIC) was determined by the plate method disclosed in "Chemotherapy" (Japan), Vol. 16, (1968), pages 98 - 99. The culture medium used was a Heart infusion agar (pH 7.4). The number of the cells per plate used in the inoculum as 10^4 (10^6 cells/ml).

Klebsiella pneumoniae = details: unit assumed
Protocol: as §1

Proteus vulgaris 3027 = details: Proteus vulgaris 3027, standard strain; unit assumed
Protocol: as §1

[1] = system: Pseudomonas aeruginosa I.F.O.; details: unit assumed
Protocol: as §1

[2] = system: Staphylococcus aureus 209p; details: unit assumed
Protocol: as §1

MIC (Escherichia coli NIHJ)	MIC (Klebsiella pneumoniae)	MIC (Proteus vulgaris 3027)	MIC [1]	MIC [2]	Structure (SMILES)
< 1.57 µg/mL	12.5 µg/mL (≈ 23 µM)	6.25 µg/mL (≈ 11.5 µM)	12.5 µg/mL (≈ 23 µM)	< 1.57 µg/mL	CC1(C)S[C@@H]2[C@H](NC(=O)[C@H](NC(=O)N3CCN(C4CCCC4)C(=O)C3)c3ccccc3)C(=O)N2[C@H]1C(=O)O (single isomer, unassigned) [compound 32]
< 1.57 µg/mL	6.25 µg/mL (≈ 10.9 µM)	< 1.57 µg/mL	25 µg/mL (≈ 43.4 µM)	< 1.57 µg/mL	CC(=O)OCCN1CCN(C(=O)N[C@@H](C(=O)N[C@@H]2C(=O)N3[C@@H]2SC(C)(C)[C@@H]3C(=O)O)c2ccccc2)C(=O)C1=O (single isomer, unassigned) [compound 41]
< 1.57 µg/mL	1.57 µg/mL (≈ 2.78 µM)	< 1.57 µg/mL	6.25 µg/mL (≈ 11.1 µM)	< 1.57 µg/mL	CC1(C)S[C@@H]2[C@H](NC(=O)[C@H](NC(=O)N3CCN(c4ccccc4)C(=O)C3=O)c3ccccc3)C(=O)N2[C@H]1C(=O)O (single isomer, unassigned) [compound 43]
< 0.4 µg/mL	25 µg/mL (≈ 48.1 µM)	< 0.4 µg/mL	6.25 µg/mL (≈ 12 µM)	< 0.4 µg/mL	CN1CCN(C(=O)N[C@@H](C(=O)N[C@@H]2C(=O)N3[C@@H]2SC(C)(C)[C@@H]3C(=O)O)c2ccc(O)cc2)C(=O)C1=O (single isomer, unassigned) [compound 48]
< 0.79 µg/mL	6.25 µg/mL (≈ 11.4 µM)	< 0.79 µg/mL	6.25 µg/mL (≈ 11.4 µM)	< 0.79 µg/mL	COCOC(=O)[C@@H]1N2C(=O)[C@@H](NC(=O)[C@H](NC(=O)N3CCN(C)C(=O)C3=O)c3ccccc3)[C@H]2SC1(C)C (single isomer, unassigned) [compound 50]
< 0.4 µg/mL	< 0.4 µg/mL	< 0.4 µg/mL	12.5 µg/mL (≈ 19.4 µM)	< 0.4 µg/mL	CCCCCCCCN1CCN(C(=O)N[C@@H](C(=O)N[C@@H]2C(=O)N3[C@@H]2SC(C)(C)[C@@H]3C(=O)OCOC)c2ccccc2)C(=O)C1=O (single isomer, unassigned) [compound 51]
< 0.4 µg/mL	25 µg/mL (≈ 40.7 µM)	0.79 µg/mL (≈ 1.29 µM)	6.25 µg/mL (≈ 10.2 µM)	0.79 µg/mL (≈ 1.29 µM)	CN1CCN(C(=O)N[C@@H](C(=O)N[C@@H]2C(=O)N3[C@@H]2SC(C)(C)[C@@H]3C(=O)OCCN2CCCCC2)c2ccccc2)C(=O)C1=O (single isomer, unassigned) [compound 53]

The remaining lines, values behind:

Structure (SMILES)	MIC (Escherichia coli NIHJ)	MIC (Klebsiella pneumoniae)	MIC (Proteus vulgaris 3027)	MIC [1]	MIC [2]
C=CC(C)N1CCN(C(=O)N[C@@H](C(=O)N[C@@H]2C(=O)N3[C@@H]2SC(C)(C)[C@@H]3C(=O)O)c2ccccc2)CC1=O (single isomer, unassigned) [compound 26]	< 1.57 µg/mL	25 µg/mL (≈ 47.2 µM)	12.5 µg/mL (≈ 23.6 µM)	25 µg/mL (≈ 47.2 µM)	< 1.57 µg/mL
C=CCN1CCN(C(=O)N[C@@H](C(=O)N[C@@H]2C(=O)N3[C@@H]2SC(C)(C)[C@@H]3C(=O)O)c2ccccc2)C(=O)C1=O (single isomer, unassigned) [compound 42]	< 1.57 µg/mL	6.25 µg/mL (≈ 11.8 µM)	< 1.57 µg/mL	12.5 µg/mL (≈ 23.6 µM)	1.57 µg/mL (≈ 2.96 µM)
CN1CCN(C(=O)N[C@@H](C(=O)N[C@@H]2C(=O)N3[C@@H]2SC(C)(C)[C@@H]3C(=O)OC2OC(=O)c3ccccc32)c2ccccc2)C(=O)C1=O (single isomer, unassigned) [compound 49]	0.79 µg/mL (≈ 1.24 µM)	12.5 µg/mL (≈ 19.7 µM)	1.57 µg/mL (≈ 2.47 µM)	12.5 µg/mL (≈ 19.7 µM)	< 0.4 µg/mL
CN1CCN(C(=O)N[C@@H](C(=O)N[C@@H]2C(=O)N3[C@@H]2SC(C)(C)[C@@H]3C(=O)OCOC(=O)C(C)(C)C)c2ccccc2)C(=O)C1=O (single isomer, unassigned) [compound 52]	0.79 µg/mL (≈ 1.28 µM)	25 µg/mL (≈ 40.5 µM)	1.57 µg/mL (≈ 2.54 µM)	25 µg/mL (≈ 40.5 µM)	0.79 µg/mL (≈ 1.28 µM)
CCCCCCCCN1CCN(C(=O)NC(C(=O)NC2C(=O)N3C2SC(C)(C)C3C(=O)OCCN2CCCCC2)c2ccccc2)C(=O)C1=O (single isomer, unassigned) [compound 54]	0.4 µg/mL (≈ 0.561 µM)	0.79 µg/mL (≈ 1.11 µM)	0.79 µg/mL (≈ 1.11 µM)	12.5 µg/mL (≈ 17.5 µM)	0.79 µg/mL (≈ 1.11 µM)
CN1CCN(C(=O)NC(C(=O)NC2C(=O)N3C2SC(C)(C)C3C(=O)OCCN2CCOCC2)c2ccccc2)C(=O)C1=O (single isomer, unassigned) [compound 55]	0.4 µg/mL (≈ 0.649 µM)	25 µg/mL (≈ 40.5 µM)	0.79 µg/mL (≈ 1.28 µM)	6.25 µg/mL (≈ 10.1 µM)	0.79 µg/mL (≈ 1.28 µM)

Source: US4110327A, “2,3 Diketo-piperazinocarbonylamino alkanoic acids and derivatives” (Toyama Chemical Co., Ltd., priority 1974, dated 1978)
